Measurements from patent publication US20040023922A1, “Lipids for modulating immune response” (priority 2000, published 2004).
Like-named read-outs stand apart in the source and are kept apart here.

Legend:
mesenteric lymph nodes = assay type: in vivo, mice
Female Balb/c mice = assay: Adjuvanticity of lipids: serum anti-KLH IgA, IgG, IgM ELISA (Example 7); assay type: in vivo; settings: for Day 7 Results IgA, score as multiples of the control response / Day 7 Results IgG, score as multiples of the control response / Day 7 Results IgM, score as multiples of the control response: serum day 7 after booster; for Day 7 Results IgA, score as multiples of the control response: 5 μl lipid + 45 μl saline + 50 μl KLH (2 mg/ml), week 0 and week 2; for Day 7 Results IgA, score as multiples of the control response / Day 7 Results IgG, score as multiples of the control response / Day 7 Results IgM, score as multiples of the control response / Day 21 Results IgA, score as multiples of the control response / Day 21 Results IgG, score as multiples of the control response / Day 21 Results IgM, score as multiples of the control response: control KLH + Saline = 1; for Day 21 Results IgA, score as multiples of the control response / Day 21 Results IgG, score as multiples of the control response / Day 21 Results IgM, score as multiples of the control response: serum day 21 after booster; for Ranking Total: sum of the six IgA, IgG, IgM scores of day 7 and day 21, control KLH + Saline = 6
Method: The objective of this study was to investigate the adjuvanticity of 19 different lipids.
Female Balb/c mice, 6-8 weeks and weighing about 20-22 gms were used and maintained on a normal mouse diet throughout the study.
There were 22 groups of mice marked alphabetically from A-V. Group A (8 mice) was the negative control (KLH+Saline), Group B (8 mice) was the positive control (KLH+IFA). Groups C-V were the experimental groups containing 6 mice each. 100 μl of antigen preparation comprising of 5 μl lipid+45 μl saline+50 μl (2 mg/ml KLH) was administered to 20 groups of 6 mice each, on week 0 followed by a boost on week 2.
On day 7 and day 21 after the booster dose, the mice were tail bled, the serum separated, aliquoted and stored at 4° C.
The specific anti-KLH IgG and IgM antibody content of each individual serum sample was determined in an established ELISA assay and standardised against a positive control antiserum obtained by hyperimmunisation of mice with KLH (100 μg) in Freund's incomplete adjuvant. Plates were coated with KLH at 2 μg/ml and incubated with four twofold dilutions of samples (100 μl) at 37° C. for 2 hours. The initial dilution of serum samples was 1:50 for IgA assay and 1:100 for IgG and IgM assays. […] IgA and IgM were used at 1:1000 and IgG at 1:2000 for 2 hours at 37° C. The results were expressed as antibody units calculated from the standard curve obtained from pooled immune mouse serum given an arbitrary antibody value of 100,000 IgA units/ml and 1×10^6 IgG and IgM units/ml. The standard curve was diluted from 1:100 to 1:3200 for IgA, 1:4000 to 1:256,000 for IgG and 1:1000 to 1:32000 for IgM samples. The value for each sample dilution falling on standard curve was calculated and the mean taken as the value for the sample.
Results are given in the form of histograms (FIGS. 9 to 14), plotting the Ig response (units/ml) against the trial grouping. […] The number signifies multiples of the control response.

SMILES: CC/C=C\C/C=C\C/C=C\CCCCCCCC(=O)OCC(COC(=O)CCCCCCC/C=C\C/C=C\C/C=C\CC)OC(=O)CCCCCCC/C=C\C/C=C\C/C=C\CC [Trilinolenin]
- Proliferative cellular response of mesenteric lymph nodes to KLH compared to control (FIG. 15) (mesenteric lymph nodes; 40 μg on SiO2 particles in 0.2 ml PBS per mouse per day intragastrically, days 1-3, KLH + cholera toxin days 7 and 14, killed day 21, control KLH+CT): strong proliferative response

SMILES: CCCCCCCC/C=C\CCCCCCCC(=O)OC[C@H](COP(=O)([O-])OCC[N+](C)(C)C)OC(=O)CCCCCCC/C=C\CCCCCCCC [Phosphatidycholine, dioleoyl, Phosphatidylcholine, dioleoyl]
- Proliferative cellular response of mesenteric lymph nodes to KLH compared to control (FIG. 15) (mesenteric lymph nodes; mouse, in vivo): strong proliferative response

SMILES: CCCCCCCCCCCCCCC(=O)OCC(COC(=O)CCCCCCCCCCCCCC)OC(=O)CCCCCCCCCCCCCC [TPeN, Tripentadecanoin]
- Day 7 Results IgA, score as multiples of the control response (Female Balb/c mice): 11
- Day 7 Results IgG, score as multiples of the control response (Female Balb/c mice): 4
- Day 7 Results IgM, score as multiples of the control response (Female Balb/c mice): 2
- Day 21 Results IgA, score as multiples of the control response (Female Balb/c mice): 3
- Day 21 Results IgG, score as multiples of the control response (Female Balb/c mice): 9
- Day 21 Results IgM, score as multiples of the control response (Female Balb/c mice): 2
- Ranking Total (Female Balb/c mice): 31

SMILES: CCCCCCCCCCCCCCCC(=O)N[C@@H](CO[C@@H]1O[C@H](CO)[C@@H](O)[C@H](O)[C@H]1O)[C@H](O)CCCCCCCCCCCCCCC [PC, N-Palmitoyl dihydroglucocerebroside]
- Day 7 Results IgA, score as multiples of the control response (Female Balb/c mice): 33
- Day 7 Results IgG, score as multiples of the control response (Female Balb/c mice): 2
- Day 7 Results IgM, score as multiples of the control response (Female Balb/c mice): 3
- Day 21 Results IgA, score as multiples of the control response (Female Balb/c mice): 3
- Day 21 Results IgG, score as multiples of the control response (Female Balb/c mice): 12
- Day 21 Results IgM, score as multiples of the control response (Female Balb/c mice): 3
- Ranking Total (Female Balb/c mice): 56
